According to ChEMBL document CHEMBL3885861, “Open TG-GATES”:

Species on record: Rattus norvegicus
Experiment: Open TG-GATES - Regimen: Daily Repeat
Type: toxicity, organism-based, Sprague-Dawley
Design: regimen Daily Repeat, gender Male, age 6 weeks
Conditions: in vivo, po, route gavage; for APTT / Bas / Eos / Fbg / Hb / Ht / Lym / MCH / MCHC / MCV / Mono / Neu / PT / Plat / RBC / Ret / WBC: tissue Blood; for ALP / ALT / AST / BUN / CRE / DBIL / GLC / IP / K / Na / PL / RALB / TBIL / TC / TG / TP / gamma-GTP: tissue Plasma
[1] = 0 mg/kg, 72 h, dose level Control, time 3 day
[2] = 0 mg/kg, […], dose level Control, time 7 day
[3] = 0 mg/kg, […], dose level Control, time 14 day
[4] = 0 mg/kg, […], dose level Control, time 28 day
[5] = 30 mg/kg, 72 h, dose level Low, time 3 day
[6] = 30 mg/kg, […], dose level Low, time 7 day
[7] = 30 mg/kg, […], dose level Low, time 14 day
[8] = 30 mg/kg, […], dose level Low, time 28 day

Question: What does the source list for `NS(=O)(=O)c1cc(C(=O)O)c(NCc2ccco2)cc1Cl` [FUROSEMIDE]?
Answer: TERMINAL_BW [1]: 240.2 g; APTT [1]: 15.8 s; Bas [1]: 0.2%; Eos [1]: 1%; Fbg [1]: 306 mg/dL; Hb [1]: 13.5 g/dL; Ht [1]: 40.3%; Lym [1]: 73.8%; MCH [1]: 21.5 pg; MCHC [1]: 33.6%; MCV [1]: 64.1 fL; Mono [1]: 3.2%; Neu [1]: 21.2%; PT [1]: 14.8 s; Plat [1]: 114.8 x10_4/uL; RBC [1]: 629.2 x10_4/ul; Ret [1]: 6.5%; WBC [1]: 92.7 x10_2/uL; ALP [1]: 1396.2 IU/L; ALT [1]: 42 IU/L; AST [1]: 66.2 IU/L; BUN [1]: 14.4 mg/dL; CRE [1]: 0.2 mg/dL; DBIL [1]: 0.016 mg/dL; GLC [1]: 180.2 mg/dL; IP [1]: 7.7 mg/dL; K [1]: 3.8 meq/L; Na [1]: 142.6 meq/L; PL [1]: 182 mg/dL; RALB [1]: 2.7 g/dL; TBIL [1]: 0.056 mg/dL; TC [1]: 91 mg/dL; TG [1]: 130 mg/dL; TP [1]: 5.8 g/dL; gamma-GTP [1]: 0.4 IU/L; TERMINAL_BW [2]: 280.2 g; TERMINAL_BW [3]: 327.8 g; TERMINAL_BW [4]: 406.3 g; APTT [2]: 17.8 s; Bas [2]: 0.6%; Eos [2]: 1%; Fbg [2]: 294.2 mg/dL; Hb [2]: 13.7 g/dL; Ht [2]: 39.9%; Lym [2]: 80.2%; MCH [2]: 21.2 pg; MCHC [2]: 34.5%; MCV [2]: 61.5 fL; Mono [2]: 2.6%; Neu [2]: 14.8%; PT [2]: 15.5 s; Plat [2]: 125.8 x10_4/uL; RBC [2]: 648.6 x10_4/ul; Ret [2]: 5.2%; WBC [2]: 100.8 x10_2/uL; APTT [3]: 19.3 s; Bas [3]: 0.4%; Eos [3]: 1%; Fbg [3]: 289.4 mg/dL; Hb [3]: 15 g/dL; Ht [3]: 43.1%; Lym [3]: 81%; MCH [3]: 21 pg; MCHC [3]: 34.7%; MCV [3]: 60.4 fL; Mono [3]: 2.8%; Neu [3]: 14.2%; PT [3]: 15.3 s; Plat [3]: 117.3 x10_4/uL; RBC [3]: 713.8 x10_4/ul; Ret [3]: 4.2%; WBC [3]: 117.4 x10_2/uL; APTT [4]: 17.8 s; Bas [4]: 0.6%; Eos [4]: 1.2%; Fbg [4]: 266.6 mg/dL; Hb [4]: 15.1 g/dL; Ht [4]: 44.6%; Lym [4]: 82.2%; MCH [4]: 19.1 pg; MCHC [4]: 33.7%; MCV [4]: 56.7 fL; Mono [4]: 2.2%; Neu [4]: 13.4%; PT [4]: 16.4 s; Plat [4]: 100.7 x10_4/uL; RBC [4]: 787.6 x10_4/ul; Ret [4]: 1.8%; WBC [4]: 98.8 x10_2/uL; ALP [2]: 1277.2 IU/L; ALT [2]: 38.2 IU/L; AST [2]: 61.4 IU/L; BUN [2]: 15.6 mg/dL; CRE [2]: 0.2 mg/dL; DBIL [2]: 0.018 mg/dL; GLC [2]: 179.4 mg/dL; IP [2]: 7.8 mg/dL; K [2]: 4 meq/L; Na [2]: 142.6 meq/L; PL [2]: 168 mg/dL; RALB [2]: 2.7 g/dL; TBIL [2]: 0.05 mg/dL; TC [2]: 85.6 mg/dL; TG [2]: 119.8 mg/dL; TP [2]: 5.9 g/dL; gamma-GTP [2]: 0.8 IU/L; ALP [3]: 1456.8 IU/L; ALT [3]: 43.4 IU/L; AST [3]: 64.6 IU/L; BUN [3]: 15.2 mg/dL; CRE [3]: 0.2 mg/dL; DBIL [3]: 0.014 mg/dL; GLC [3]: 177.8 mg/dL; IP [3]: 7.4 mg/dL; K [3]: 4.1 meq/L; Na [3]: 143.6 meq/L; PL [3]: 160.6 mg/dL; RALB [3]: 2.8 g/dL; TBIL [3]: 0.046 mg/dL; TC [3]: 69.8 mg/dL; TG [3]: 157.2 mg/dL; TP [3]: 6.1 g/dL; gamma-GTP [3]: 0.6 IU/L; ALP [4]: 1033.8 IU/L; ALT [4]: 36.4 IU/L; AST [4]: 64.6 IU/L; BUN [4]: 14.4 mg/dL; CRE [4]: 0.2 mg/dL; DBIL [4]: 0.016 mg/dL; GLC [4]: 183.4 mg/dL; IP [4]: 6.3 mg/dL; K [4]: 3.9 meq/L; Na [4]: 143.8 meq/L; PL [4]: 137.2 mg/dL; RALB [4]: 2.8 g/dL; TBIL [4]: 0.048 mg/dL; TC [4]: 64.8 mg/dL; TG [4]: 116.6 mg/dL; TP [4]: 6.2 g/dL; gamma-GTP [4]: 0.4 IU/L; TERMINAL_BW [5]: 242 g; APTT [5]: 16.1 s; Bas [5]: 0.2%; Eos [5]: 1%; Fbg [5]: 282.4 mg/dL; Hb [5]: 13.4 g/dL; Ht [5]: 39.8%; Lym [5]: 79.2%; MCH [5]: 21.7 pg; MCHC [5]: 33.6%; MCV [5]: 64.6 fL; Mono [5]: 2.4%; Neu [5]: 16.8%; PT [5]: 15.2 s; Plat [5]: 115.5 x10_4/uL; RBC [5]: 617 x10_4/ul; Ret [5]: 5.5%; WBC [5]: 93.7 x10_2/uL; ALP [5]: 1458.2 IU/L; ALT [5]: 37.6 IU/L; AST [5]: 66.6 IU/L; BUN [5]: 16.2 mg/dL; CRE [5]: 0.2 mg/dL; DBIL [5]: 0.012 mg/dL; GLC [5]: 173.8 mg/dL; IP [5]: 7.3 mg/dL; K [5]: 3.8 meq/L; Na [5]: 142.6 meq/L; PL [5]: 157 mg/dL; RALB [5]: 2.6 g/dL; TBIL [5]: 0.048 mg/dL; TC [5]: 79.2 mg/dL; TG [5]: 94.6 mg/dL; TP [5]: 5.7 g/dL; gamma-GTP [5]: 0.6 IU/L; TERMINAL_BW [6]: 283.7 g; TERMINAL_BW [7]: 321.7 g; TERMINAL_BW [8]: 410.5 g; APTT [6]: 17.3 s; Bas [6]: 0.2%; Eos [6]: 1%; Fbg [6]: 291 mg/dL; Hb [6]: 13.4 g/dL; Ht [6]: 39.7%; Lym [6]: 78.2%; MCH [6]: 21.2 pg; MCHC [6]: 33.7%; MCV [6]: 62.8 fL; Mono [6]: 3%; Neu [6]: 16.4%; PT [6]: 15.5 s; Plat [6]: 114.5 x10_4/uL; RBC [6]: 631.8 x10_4/ul; Ret [6]: 5.9%; WBC [6]: 125.8 x10_2/uL; APTT [7]: 19.2 s; Bas [7]: 0.4%; Eos [7]: 0.8%; Fbg [7]: 296.8 mg/dL; Hb [7]: 14.4 g/dL; Ht [7]: 42.1%; Lym [7]: 81.4%; MCH [7]: 20.8 pg; MCHC [7]: 34.3%; MCV [7]: 60.7 fL; Mono [7]: 2.2%; Neu [7]: 14.2%; PT [7]: 15.8 s; Plat [7]: 109.5 x10_4/uL; RBC [7]: 693.6 x10_4/ul; Ret [7]: 3.9%; WBC [7]: 112.4 x10_2/uL; APTT [8]: 17.7 s; Bas [8]: 0.6%; Eos [8]: 1%; Fbg [8]: 270.4 mg/dL; Hb [8]: 14.8 g/dL; Ht [8]: 43.9%; Lym [8]: 81.2%; MCH [8]: 19.8 pg; MCHC [8]: 33.8%; MCV [8]: 58.5 fL; Mono [8]: 1.8%; Neu [8]: 15%; PT [8]: 15.8 s; Plat [8]: 95.5 x10_4/uL; RBC [8]: 750.2 x10_4/ul; Ret [8]: 2.5%; WBC [8]: 110.9 x10_2/uL; ALP [6]: 1491.8 IU/L; ALT [6]: 41.2 IU/L; AST [6]: 67.4 IU/L; BUN [6]: 16.2 mg/dL; CRE [6]: 0.2 mg/dL; DBIL [6]: 0.018 mg/dL; GLC [6]: 188.2 mg/dL; IP [6]: 7.5 mg/dL; K [6]: 4 meq/L; Na [6]: 142.6 meq/L; PL [6]: 170.2 mg/dL; RALB [6]: 2.6 g/dL; TBIL [6]: 0.05 mg/dL; TC [6]: 83.6 mg/dL; TG [6]: 130.2 mg/dL; TP [6]: 5.7 g/dL; gamma-GTP [6]: 0.8 IU/L; ALP [7]: 1426.6 IU/L; ALT [7]: 40.8 IU/L; AST [7]: 70 IU/L; BUN [7]: 16.6 mg/dL; CRE [7]: 0.2 mg/dL; DBIL [7]: 0.016 mg/dL; GLC [7]: 188.6 mg/dL; IP [7]: 6.7 mg/dL; K [7]: 3.9 meq/L; Na [7]: 143.6 meq/L; PL [7]: 152 mg/dL; RALB [7]: 2.6 g/dL; TBIL [7]: 0.046 mg/dL; TC [7]: 72.2 mg/dL; TG [7]: 126.6 mg/dL; TP [7]: 5.9 g/dL; gamma-GTP [7]: 0.4 IU/L; ALP [8]: 1044.8 IU/L; ALT [8]: 36 IU/L; AST [8]: 58.6 IU/L; BUN [8]: 15.8 mg/dL; CRE [8]: 0.2 mg/dL; DBIL [8]: 0.016 mg/dL; GLC [8]: 179.4 mg/dL; IP [8]: 5.8 mg/dL; K [8]: 3.9 meq/L; Na [8]: 144 meq/L; PL [8]: 164.4 mg/dL; RALB [8]: 2.7 g/dL; TBIL [8]: 0.044 mg/dL; TC [8]: 78.4 mg/dL; TG [8]: 155.8 mg/dL; TP [8]: 6.3 g/dL; gamma-GTP [8]: 1 IU/L
